These results are taken from patent US20230023559A1, “ARYLMETHYLENE HETEROCYCLIC COMPOUNDS AS KV1.3 POTASSIUM SHAKER CHANNEL BLOCKERS” (D. E. Shaw Research, LLC, priority 2019, published 2023).

Molecules are shown by their SMILES.

One test concerns the target T1, Kv1.3 potassium channel (Homo sapiens, UniProt P22001).
T1 construct: expressed in transfected cells
The test can be described thus: Kv1.3 potassium channel blocker activity, automated whole-cell patch clamp (Patchliner). The format is cell-based. The following applies: CHO-K1 cells stably expressing Kv1.3; whole cell current inhibition; read-out: Kv1.3_IC50. In short, it runs like this:
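Peak-current block was recorded on stable Kv1.3 CHO-K1 cells by automated patch clamp, stepping from a −90 mV holding potential to +40 mV for 100 ms at 0.1 Hz with 10 s breaks between trains. Online P/4 leak subtraction, 10 kHz sampling; compound exposure under 10 s per train.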
In general terms: In patch-clamp work, channel activity is measured electrically.

The next test has as its target hERG channel (Homo sapiens, UniProt Q12809). Description: hERG electrophysiology, automated whole-cell patch clamp (Patchliner). In general terms: hERG is a cardiac potassium channel; its block is linked to QT prolongation.

T1 sequence (P22001 whole entry): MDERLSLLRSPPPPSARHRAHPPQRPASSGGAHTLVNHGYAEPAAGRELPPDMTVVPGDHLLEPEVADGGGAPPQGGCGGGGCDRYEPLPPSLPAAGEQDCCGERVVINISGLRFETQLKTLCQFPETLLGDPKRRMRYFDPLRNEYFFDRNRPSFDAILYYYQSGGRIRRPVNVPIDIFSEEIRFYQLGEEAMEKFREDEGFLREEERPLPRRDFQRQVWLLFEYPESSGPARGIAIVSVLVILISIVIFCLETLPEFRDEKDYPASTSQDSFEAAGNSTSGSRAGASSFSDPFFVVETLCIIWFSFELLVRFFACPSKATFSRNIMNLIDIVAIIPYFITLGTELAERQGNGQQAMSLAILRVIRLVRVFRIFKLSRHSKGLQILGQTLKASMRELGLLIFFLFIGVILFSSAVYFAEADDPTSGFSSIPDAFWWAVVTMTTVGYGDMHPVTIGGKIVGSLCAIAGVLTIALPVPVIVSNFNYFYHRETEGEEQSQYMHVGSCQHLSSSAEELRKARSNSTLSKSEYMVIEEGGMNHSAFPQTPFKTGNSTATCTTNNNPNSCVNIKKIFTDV
Sequence of hERG channel (Q12809 whole entry): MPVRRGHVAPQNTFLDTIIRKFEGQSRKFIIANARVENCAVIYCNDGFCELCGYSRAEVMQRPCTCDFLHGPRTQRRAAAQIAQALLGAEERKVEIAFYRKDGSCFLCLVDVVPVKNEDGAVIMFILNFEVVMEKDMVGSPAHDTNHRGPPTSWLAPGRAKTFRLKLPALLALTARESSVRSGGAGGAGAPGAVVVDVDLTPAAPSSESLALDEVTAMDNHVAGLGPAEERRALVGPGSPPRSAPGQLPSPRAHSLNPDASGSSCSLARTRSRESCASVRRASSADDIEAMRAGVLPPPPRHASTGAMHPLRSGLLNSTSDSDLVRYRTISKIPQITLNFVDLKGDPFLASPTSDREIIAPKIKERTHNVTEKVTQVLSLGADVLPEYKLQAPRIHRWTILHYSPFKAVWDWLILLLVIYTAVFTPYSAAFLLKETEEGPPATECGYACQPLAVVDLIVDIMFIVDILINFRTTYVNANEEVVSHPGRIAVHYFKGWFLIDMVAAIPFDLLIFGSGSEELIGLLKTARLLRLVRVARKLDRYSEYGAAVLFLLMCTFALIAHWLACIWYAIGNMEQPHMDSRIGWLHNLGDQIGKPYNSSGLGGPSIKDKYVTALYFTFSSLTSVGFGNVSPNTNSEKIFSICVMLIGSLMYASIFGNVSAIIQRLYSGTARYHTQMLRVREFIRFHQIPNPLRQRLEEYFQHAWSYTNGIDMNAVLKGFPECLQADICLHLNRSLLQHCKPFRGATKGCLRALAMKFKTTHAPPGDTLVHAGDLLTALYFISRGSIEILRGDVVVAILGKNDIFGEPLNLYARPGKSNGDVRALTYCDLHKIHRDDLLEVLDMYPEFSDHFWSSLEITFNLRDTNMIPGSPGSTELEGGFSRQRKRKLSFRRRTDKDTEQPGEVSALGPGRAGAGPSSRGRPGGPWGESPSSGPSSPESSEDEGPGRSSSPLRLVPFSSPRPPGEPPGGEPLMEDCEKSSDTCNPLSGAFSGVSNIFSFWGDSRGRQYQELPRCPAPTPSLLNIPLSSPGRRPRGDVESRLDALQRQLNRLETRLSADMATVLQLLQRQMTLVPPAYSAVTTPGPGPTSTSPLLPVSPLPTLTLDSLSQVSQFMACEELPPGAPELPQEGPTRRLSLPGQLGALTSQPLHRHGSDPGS

By IC50 is commonly meant the concentration needed to halve the response being measured. Turning to `Nc1nnc(C(=O)N2CCC([C@@H](N)c3cc(Cl)c(Cl)cc3O)CC2)o1` [Compound 155, 2-[(R)-amino[1-(5-amino-1,3,4-oxadiazole-2-carbonyl)piperidin-4-yl]methyl]-4,5-dichlorophenol trifluoroacetic acid], the 50% inhibitory concentration (IC50) on Kv1.3 potassium channel is < 10 µM; against hERG channel it was > 30 µM.

With `NC(c1cc(Cl)c(Cl)cc1O)C1CCN(C(=O)[C@@H]2CCNC2)CC1` (stereo partly drawn) [Compound 66, (4-(amino(4,5-dichloro-2-hydroxyphenyl)methyl)piperidin-1-yl)((R)-pyrrolidin-3-yl)methanone Trifluoroacetic Acid], the half-inhibitory concentration (IC50) is < 0.5 µM at Kv1.3 potassium channel and > 30 µM on hERG channel.

For the compound `NC(c1cc(Cl)c(Cl)cc1O)C1CC2CCC(C1)N2` (stereo not shown) [Compound 42, 2-[amino(8-azabicyclo[3.2.1]octan-3-yl)methyl]-4,5-dichlorophenol Trifluoroacetic Acid], the results for the IC50 on Kv1.3 potassium channel and on hERG channel were < 10 µM and > 30 µM, respectively.

Take `CNC(c1cc(Cl)c(Cl)cc1O)C1CCN(C(=O)[C@H](O)CO)CC1` (stereo partly drawn) [Compound 196, (2R)-1-[4-[(4,5-dichloro-2-hydroxyphenyl)(methylamino)methyl]piperidin-1-yl]-2,3-dihydroxypropan-1-one]: the IC50 at Kv1.3 potassium channel was < 10 µM; at hERG channel, > 30 µM.

Take `N[C@@H](c1cc(Cl)c(Cl)cc1O)C1CCN(S(=O)(=O)CCO)CC1` [Compound 145, (R)-2-(amino(1-((2-hydroxyethyl)sulfonyl)piperidin-4-yl)methyl)-4,5-dichlorophenol Trifluoroacetic Acid]: the values for the IC50 on Kv1.3 potassium channel and against hERG channel were < 0.5 µM and < 30 µM, respectively.

For `Cc1cc(O)c([C@H](N)C2CCN(C(=O)c3ccc4nncn4c3)CC2)cc1Cl` [Compound 242, (R)-[1,2,4]triazolo[4,3-a]pyridin-6-yl(4-(amino(5-chloro-2-hydroxy-4-methylphenyl)methyl)piperidin-1-yl)methanone trifluoroacetic acid], the IC50 on Kv1.3 potassium channel was < 0.5 µM; on hERG channel, > 30 µM.

Regarding `CC(O)(CO)C(=O)N1CCC([C@@H](N)c2cc(Cl)c(Cl)cc2O)CC1` (stereo partly drawn) [Compound 201, 1-[4-[(R)-amino(4,5-dichloro-2-hydroxyphenyl)methyl]piperidin-1-yl]-2,3-dihydroxy-2-methylpropan-1-one Trifluoroacetic Acid], the IC50 on Kv1.3 potassium channel is < 10 µM; against hERG channel, > 30 µM.

`N[C@@H](c1cc(Cl)c(Cl)cc1O)C1CCN(C(=O)CCO)CC1` [Compound 133, 1-[4-[(R)-amino(4,5-dichloro-2-hydroxyphenyl)methyl]piperidin-1-yl]-3-hydroxypropan-1-one trifluoroacetic acid]: the IC50 on Kv1.3 potassium channel was < 0.5 µM; on hERG channel it was > 30 µM.

With `N[C@@H](c1cc(Cl)c(Cl)cc1O)C1CCN(C(=O)C2CC(F)(F)C2)CC1` [Compound 161, 2-[(R)-amino[1-(3,3-difluorocyclo-butanecarbonyl)piperidin-4-yl]methyl]-4,5-dichlorophenol], the IC50 was < 10 µM on Kv1.3 potassium channel and < 30 µM at hERG channel.

Turning to `N[C@@H](c1cc(Cl)c(Cl)cc1O)C1CCN(C(=O)COC2COC2)CC1` [Compound 192, 1-[4-[(R)-amino(4,5-dichloro-2-hydroxyphenyl)methyl]piperidin-1-yl]-2-(oxetan-3-yloxy)ethan-1-one], the concentration for half-maximal inhibition (IC50) on Kv1.3 potassium channel was < 0.5 µM; against hERG channel, > 30 µM.

`CC(=O)N1CCC([C@@H](N)c2cc(Cl)c(Cl)cc2O)CC1` (single isomer, unassigned) [Compound 20]: the IC50 at Kv1.3 potassium channel is < 0.5 µM; at hERG channel it was < 30 µM.

Take `NC(c1cc(Cl)c(Cl)cc1O)C1CCN(C(=O)CO)CC1` (stereo not shown) [Compound 47, 1-[4-[amino(4,5-dichloro-2-hydroxyphenyl)methyl]piperidin-1-yl]-2-hydroxyethan-1-one]: the results for the IC50 on Kv1.3 potassium channel and against hERG channel were < 0.5 µM and > 30 µM, respectively.

As to `N[C@@H](c1cc(Cl)c(Cl)cc1O)C1CCN(C(=O)[C@@H]2COCCO2)CC1` [Compound 170, 2-[(R)-amino([1-[(2S)-1,4-dioxane-2-carbonyl]piperidin-4-yl])methyl]-4,5-dichlorophenol trifluoroacetic acid], the IC50 at Kv1.3 potassium channel was < 10 µM; against hERG channel, < 30 µM.

With `N[C@@H](c1cc(Cl)c(Cl)cc1O)C1CCN(C(=O)[C@H]2CNC(=O)CO2)CC1` (single isomer, unassigned; isomer 2) [Compound 276], the figures for the IC50 at Kv1.3 potassium channel and on hERG channel were < 0.5 µM and > 30 µM, respectively.

Take `CN1CC(C(=O)N2CCC([C@@H](N)c3cc(Cl)c(Cl)cc3O)CC2)NCC1=O` (stereo partly drawn) [Compound 300, 5-[4-[(R)-amino(4,5-dichloro-2-hydroxyphenyl)methyl]piperidine-1-carbonyl]-1-methylpiperazin-2-one Trifluoroacetic Acid]: the IC50 at Kv1.3 potassium channel is < 0.5 µM; on hERG channel it was > 30 µM.

As for `N[C@@H](c1cc(Cl)c(Cl)cc1O)C1CCN(C(=O)C(CO)CO)CC1` [Compound 303, 1-[4-[(R)-amino(4,5-dichloro-2-hydroxyphenyl)methyl]piperidin-1-yl]-3-hydroxy-2-(hydroxymethyl) propan-1-one trifluoroacetic acid], the figures for the IC50 at Kv1.3 potassium channel and against hERG channel were < 0.5 µM and > 30 µM, respectively.

Turning to `CN1C(=O)CC[C@H]1C(=O)N1CCC([C@@H](N)c2cc(Cl)c(Cl)cc2O)CC1` [Compound 306, (S)-5-(4-((R)-amino(4,5-dichloro-2-hydroxyphenyl)methyl)piperidine-1-carbonyl)-1-methylpyrrolidin-2-one trifluoroacetic acid], the IC50 at Kv1.3 potassium channel was < 0.5 µM; against hERG channel, > 30 µM.

Turning to `Oc1ccc2ccccc2c1C(O)C1CCNCC1` (stereo not shown) [Compound 30, 1-(hydroxy(piperidin-4-yl)methyl)naphthalen-2-ol], the 50% inhibitory concentration (IC50) was < 10 µM on Kv1.3 potassium channel and > 30 µM against hERG channel.

Turning to `CC(=O)NC(c1c(O)ccc2ccccc12)C1CCNCC1` (stereo not shown) [Compound 36, N-[(2-hydroxynaphthalen-1-yl)(piperidin-4-yl)methyl]acetamide Trifluoroacetic Acid], the 50% inhibitory concentration (IC50) on Kv1.3 potassium channel was < 10 µM; against hERG channel it was > 30 µM.

With `N[C@@H](c1cc(Cl)c(Cl)cc1O)C1CCN(S(=O)(=O)c2cn[nH]c2)CC1` [Compound 158, 2-[(R)-amino[1-(1H-pyrazole-4-sulfonyl)piperidin-4-yl]methyl]-4,5-dichlorophenol Trifluoroacetic Acid], the IC50 at Kv1.3 potassium channel is < 10 µM; at hERG channel it was < 30 µM.

On to `NC(c1c(O)cc(Cl)c(Cl)c1Cl)C1CCNCC1` (stereo not shown) [Compound 37, 2-[amino(piperidin-4-yl)methyl]-3,4,5-trichlorophenol Trifluoroacetic Acid], for which the half-maximal inhibitory concentration (IC50) was < 10 µM on Kv1.3 potassium channel and > 30 µM against hERG channel.

Turning to `N[C@@H](c1cc(Cl)c(Cl)cc1O)C1CCN(C(=O)[C@@H]2CNC(=O)OC2)CC1` (single isomer, unassigned; isomer 2) [Compound 210], the 50% inhibitory concentration (IC50) on Kv1.3 potassium channel is < 0.5 µM; against hERG channel, > 30 µM.

As for `N[C@@H](c1cc(Cl)c(Br)cc1O)C1CCN(C(=O)[C@H](O)CO)CC1` [Compound 317, (2R)-1-[4-[(R)-amino(4-bromo-5-chloro-2-hydroxyphenyl)methyl]piperidin-1-yl]-2,3-dihydroxypropan-1-one Trifluoroacetic Acid], the IC50 is < 0.5 µM on Kv1.3 potassium channel and > 30 µM against hERG channel.

As for `C[C@H](O)[C@@H](N)C(=O)N1CCC([C@@H](N)c2cc(Cl)c(Cl)cc2O)CC1` [Compound 173, (2R,3S)-2-amino-1-(4-((R)-amino(4,5-dichloro-2-hydroxyphenyl)methyl)piperidin-1-yl)-3-hydroxybutan-1-one bis (trifluoroacetic acid)], the half-maximal inhibitory concentration (IC50) is < 0.5 µM on Kv1.3 potassium channel and > 30 µM at hERG channel.

As for `N[C@@H](c1cc(Cl)c(Cl)cc1O)C1CCN(C(=O)CC2CNC2)CC1` [Compound 103, (R)-1-(4-(amino(4,5-dichloro-2-hydroxyphenyl)methyl)piperidin-1-yl)-2-(azetidin-3-yl)ethanone trifluoroacetic acid], the figures for the 50% inhibitory concentration (IC50) on Kv1.3 potassium channel and on hERG channel were < 0.5 µM and > 30 µM, respectively.

On to `Oc1cc(Cl)c(Cl)cc1[C@H](O)C1CCNCC1` (single isomer, unassigned) [Compound 7], for which the concentration for half-maximal inhibition (IC50) at Kv1.3 potassium channel was < 10 µM; against hERG channel, > 30 µM.

For the compound `C[C@]1(C(=O)N2CCC([C@@H](N)c3cc(Cl)c(Cl)cc3O)CC2)CCCN1` [Compound 96], the IC50 is < 0.5 µM at Kv1.3 potassium channel and > 30 µM against hERG channel.

For the compound `NC(c1cc(Cl)c(Cl)cc1O)C1CCN(C2CCOCC2)CC1` (stereo not shown) [Compound 44, 2-(amino(1-(tetrahydro-2H-pyran-4-yl)piperidin-4-yl)methyl)-4,5-dichlorophenol], the IC50 was < 10 µM on Kv1.3 potassium channel and < 30 µM against hERG channel.

For `Cc1cc(O)c([C@H](N)C2CCN(C(=O)c3c[nH]c(=O)c(C#N)c3)CC2)cc1Cl` [Compound 280, (R)-5-(4-(amino (5-chloro-2-hydroxy-4-methylphenyl)methyl)piperidine-1-carbonyl)-2-oxo-1,2-dihydro-pyridine-3-carbonitrile], the results for the IC50 on Kv1.3 potassium channel and on hERG channel were < 0.5 µM and > 30 µM, respectively.

Take `C[C@](O)(CO)C(=O)N1CCC([C@@H](N)c2cc(Cl)c(Cl)cc2O)CC1` (single isomer, unassigned; isomer 2) [Compound 218]: the values for the IC50 on Kv1.3 potassium channel and against hERG channel were < 10 µM and > 30 µM, respectively.

In the case of `N[C@@H](c1cc(Cl)c(Cl)cc1O)C1CCN(C(=O)c2cc(=O)[nH]cn2)CC1` [Compound 176, (R)-(4-(amino (4,5-dichloro-2-hydroxyphenyl)methyl)piperidin-1-yl)(6-hydroxy-pyrimidin-4-yl)methanone trifluoroacetic acid], the IC50 on Kv1.3 potassium channel was < 10 µM; on hERG channel, > 30 µM.

Take `N[C@@H](c1cc(Cl)c(Cl)cc1O)C1CCN(C(=O)C2(O)CC2)CC1` [Compound 140, 2-[(R)-amino[1-(1-hydroxycyclo-propanecarbonyl)piperidin-4-yl]methyl]-4,5-dichlorophenol trifluoroacetic acid]: the IC50 at Kv1.3 potassium channel was < 10 µM; against hERG channel it was < 30 µM.
